Here are results for one molecule from BindingDB's records for doi:10.1021/acs.jmedchem.9b00021 (2019).

The assay concerns the target T1, Menin (Homo sapiens, UniProt O00255).
T1 sequence (O00255 whole entry): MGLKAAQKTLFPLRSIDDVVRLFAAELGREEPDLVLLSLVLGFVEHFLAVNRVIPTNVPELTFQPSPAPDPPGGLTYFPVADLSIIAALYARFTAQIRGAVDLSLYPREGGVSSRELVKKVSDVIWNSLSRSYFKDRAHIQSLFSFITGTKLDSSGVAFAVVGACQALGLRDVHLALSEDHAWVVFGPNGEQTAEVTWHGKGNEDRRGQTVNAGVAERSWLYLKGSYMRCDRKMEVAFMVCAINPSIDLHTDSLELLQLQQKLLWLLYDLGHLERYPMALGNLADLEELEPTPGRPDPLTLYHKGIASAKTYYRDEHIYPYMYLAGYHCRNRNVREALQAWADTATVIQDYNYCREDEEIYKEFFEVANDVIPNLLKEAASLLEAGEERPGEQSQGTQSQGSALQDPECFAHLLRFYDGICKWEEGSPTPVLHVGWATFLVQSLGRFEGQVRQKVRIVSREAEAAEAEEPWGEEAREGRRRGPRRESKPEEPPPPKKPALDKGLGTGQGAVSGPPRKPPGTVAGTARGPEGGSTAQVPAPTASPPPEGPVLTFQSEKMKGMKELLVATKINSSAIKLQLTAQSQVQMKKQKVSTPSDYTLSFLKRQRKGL
In words: Inhibition of FAM-probe binding to Menin (unknown origin) after 60 mins by fluorescence polarization competitive binding assay.

pIC50, pKi: −log10 of the molar value.

Regarding `CC(=O)O[C@@H]1CCC[C@H]1[C@](C#N)(c1ccccc1)C1CCN(CC2CN(c3ccc(C#N)cc3)C2)CC1`, the pIC50 is 5.46 and the pKi is 5.96.
